Reference: patent publication US10681909B2, “Herbicidal triazoles” (FMC Corporation, priority 2014, dated 2020)

Legend:
field violet = test: Test D postemergence; format: in vivo, Viola arvensis; details: scale 0 to 100
Description: (§1) Seeds of plant species selected from bluegrass (annual bluegrass, Poa annua), blackgrass (Alopecurus myosuroides), canarygrass (Phalaris minor), chickweed (common chickweed, Stellaria media), galium (catchweed bedstraw, Galium aparine), bromegrass, down (downy bromegrass, Bromus tectorum), Russian thistle (Salsola kali), field poppy (Papaver rhoeas), field violet (Viola arvensis), foxtail, green (green foxtail, Setaria viridis), deadnettle (henbit deadnettle, Lamium amplexicaule), ryegrass, Ital. (Italian ryegrass, Lolium multiflorum), kochia (Kochia scoparia), lambsquarters (Chenopodium album), oilseed rape (Brassica napus), pigweed (Amaranthus retroflexus), chamomile (scentless chamomile, Matricaria inodora), speedwell (bird's-eye speedwell, Veronica persica), barley, spring (spring barley, Hordeum vulgare), wheat, spring (spring wheat, Triticum aestivum), buckwheat, wild (wild buckwheat, Polygonum convolvulus), wild mustard (Sinapis arvensis), oat, wild (wild oat, Avena fatua), radish, wild (wild radish, Raphanus raphanistrum), […]), barley, winter (winter barley, Hordeum vulgare), and wheat, winter (winter wheat, Triticum aestivum) were planted into a silt loam soil and treated preemergence with test chemicals formulated in a non-phytotoxic solvent mixture which included a surfactant. At the same time, these species were planted in pots containing Sunshine Redi-Earth® planting medium comprising spaghnum peat moss, vermiculite, starter nutrients and dolomitic limestone and treated with postemergence applications of the test chemicals formulated in the same manner. Plants ranged in height from 2 to 18 cm (1- to 4-leaf stage). Treated plants and controls were maintained in a controlled growth environment for 14 to 21 d after which time all species were compared to controls and visually evaluated. […] A dash (-) response means no test result.

oilseed rape = test: Test D postemergence; format: in vivo, Brassica napus; details: scale 0 to 100
Description: as §1

oat, wild [1] = test: Test D postemergence; format: in vivo, Avena fatua; details: scale 0 to 100
Description: as §1

buckwheat, wild = test: Test D postemergence; format: in vivo, Polygonum convolvulus; details: scale 0 to 100
Description: as §1

foxtail, green = test: Test D preemergence; format: in vivo, Setaria viridis; details: for Plant response rating: Foxtail, Green: scale 0 to 100
Description: as §1

radish, wild = test: Test D postemergence; format: in vivo, Raphanus raphanistrum; details: scale 0 to 100
Description: as §1

galium = test: Test A postemergence; format: in vivo, Galium aparine; details: 0 to 100 scale (0 no effect, 100 complete control), approx. 10 d
Summary of the method: (§2)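 Seeds sown in loam soil–sand blend received a directed preemergence soil spray of test chemical in non-phytotoxic solvent with surfactant; postemergence plants, 2 to 10 cm at one- to two-leaf stage, were sprayed with the same formulation. Injury visually rated versus untreated controls after ~10 d in greenhouse, 0–100 scale.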

lambsquarters [2] = test: Test D postemergence; format: in vivo, Chenopodium album; details: scale 0 to 100
Description: as §1

deadnettle = test: Test D preemergence; format: in vivo, Lamium amplexicaule; details: for Plant response rating: Deadnettle: scale 0 to 100
Description: as §1

Russian thistle = test: Test D preemergence; format: in vivo, Salsola kali; details: for Plant response rating: Russian Thistle: scale 0 to 100
Description: as §1

kochia = test: Test A postemergence; format: in vivo, Kochia scoparia; details: 0 to 100 scale (0 no effect, 100 complete control), approx. 10 d
Summary of the method: as §2

wheat, spring = test: Test D postemergence; format: in vivo, Triticum aestivum; details: scale 0 to 100
Description: as §1

wheat, winter = test: Test D postemergence; format: in vivo, Triticum aestivum; details: scale 0 to 100
Description: as §1

chickweed = test: Test D preemergence; format: in vivo, Stellaria media; details: for Plant response rating: Chickweed: scale 0 to 100
Description: as §1

oat, wild [3] = test: Test D preemergence; format: in vivo, Avena fatua; details: for Plant response rating: Oat, Wild: scale 0 to 100
Description: as §1

speedwell = test: Test D postemergence; format: in vivo, Veronica persica; details: scale 0 to 100
Description: as §1

lambsquarters [4] = test: Test D preemergence; format: in vivo, Chenopodium album; details: for Plant response rating: Lambsquarters: scale 0 to 100
Description: as §1

wild mustard = test: Test D postemergence; format: in vivo, Sinapis arvensis; details: scale 0 to 100
Description: as §1

[5] = 16 g ai/ha, 0 is no effect, 100 is complete control

With `CCOc1nc(-c2ccc(C(F)(F)F)cc2)nn1Cc1ccnc(C(F)(F)F)c1` [Compound 35, 4-[[5-ethoxy-3-[4-(trifluoromethyl)phenyl]-1H-1,2,4-triazole-1-yl]methyl]-2-(trifluoromethyl)pyridine] the “Plant response rating: Field Violet” value (field violet; 16 g ai/ha) was 90, the “Plant response rating: Field Violet” value (field violet; 31 g ai/ha) was 100 and the “Plant response rating: Field Violet” value (field violet; 62 g ai/ha) was 100. For the same molecule, the “Plant response rating: Field Violet” value (field violet; 125 g ai/ha) was 100, the “Plant response rating: Oilseed Rape” value (oilseed rape; 16 g ai/ha) was 80 and the “Plant response rating: Oilseed Rape” value (oilseed rape; 31 g ai/ha) was 90. The “Plant response rating: Oilseed Rape” value (oilseed rape; 62 g ai/ha) was 100, the “Plant response rating: Oilseed Rape” value (oilseed rape; 125 g ai/ha) was 100 and the “Plant response rating: Oat, Wild” value (oat, wild [1]; 16 g ai/ha) was 40. The “Plant response rating: Oat, Wild” value (oat, wild [1]; 31 g ai/ha) was 65, the “Plant response rating: Oat, Wild” value (oat, wild [1]; 62 g ai/ha) was 75 and the “Plant response rating: Oat, Wild” value (oat, wild [1]; 125 g ai/ha) was 80. The “Plant response rating: Buckwheat, Wild” value (buckwheat, wild; 16 g ai/ha) was 65, the “Plant response rating: Buckwheat, Wild” value (buckwheat, wild; 31 g ai/ha) was 70 and the “Plant response rating: Buckwheat, Wild” value (buckwheat, wild; 62 g ai/ha) was 70. For the same molecule, the “Plant response rating: Buckwheat, Wild” value (buckwheat, wild; 125 g ai/ha) was 95, the “Plant response rating (0 to 100), Foxtail, Green” value (foxtail, green; [5]) was 70 and the “Plant response rating: Foxtail, Green” value (foxtail, green; 62 g ai/ha) was 100. For the same molecule, the “Plant response rating: Foxtail, Green” value (foxtail, green; 125 g ai/ha) was 100, the “Plant response rating: Radish, Wild” value (radish, wild; 16 g ai/ha) was 85 and the “Plant response rating: Radish, Wild” value (radish, wild; 31 g ai/ha) was 100. For the same molecule, the “Plant response rating: Radish, Wild” value (radish, wild; 62 g ai/ha) was 100, the “Plant response rating: Radish, Wild” value (radish, wild; 125 g ai/ha) was 100 and the “Plant response rating, Galium” value (galium; 31 g ai/ha) was 90. The “Plant response rating, Galium” value (galium; 125 g ai/ha) was 90, the “Plant response rating: Lambsquarters” value (lambsquarters [2]; 16 g ai/ha) was 85 and the “Plant response rating: Lambsquarters” value (lambsquarters [2]; 31 g ai/ha) was 95. For the same molecule, the “Plant response rating: Lambsquarters” value (lambsquarters [2]; 62 g ai/ha) was 95, the “Plant response rating: Lambsquarters” value (lambsquarters [2]; 125 g ai/ha) was 100 and the “Plant response rating (0 to 100), Deadnettle” value (deadnettle; [5]) was 80. For the same molecule, the “Plant response rating: Deadnettle” value (deadnettle; 31 g ai/ha) was 85, the “Plant response rating: Deadnettle” value (deadnettle; 62 g ai/ha) was 100 and the “Plant response rating: Deadnettle” value (deadnettle; 125 g ai/ha) was 100. The “Plant response rating (0 to 100), Russian Thistle” value (Russian thistle; [5]) was 70, the “Plant response rating: Russian Thistle” value (Russian thistle; 62 g ai/ha) was 80 and the “Plant response rating: Russian Thistle” value (Russian thistle; 125 g ai/ha) was 85. For the same molecule, the “Plant response rating, Kochia” value (kochia; 31 g ai/ha) was 90, the “Plant response rating, Kochia” value (kochia; 125 g ai/ha) was 90 and the “Plant response rating: Wheat, Spring” value (wheat, spring; 16 g ai/ha) was 25. For the same molecule, the “Plant response rating: Wheat, Spring” value (wheat, spring; 31 g ai/ha) was 40, the “Plant response rating: Wheat, Spring” value (wheat, spring; 62 g ai/ha) was 50 and the “Plant response rating: Wheat, Spring” value (wheat, spring; 125 g ai/ha) was 50. The “Plant response rating: Wheat, Winter” value (wheat, winter; 16 g ai/ha) was 20, the “Plant response rating: Wheat, Winter” value (wheat, winter; 31 g ai/ha) was 35 and the “Plant response rating: Wheat, Winter” value (wheat, winter; 62 g ai/ha) was 40. The “Plant response rating: Wheat, Winter” value (wheat, winter; 125 g ai/ha) was 45, the “Plant response rating (0 to 100), Chickweed” value (chickweed; [5]) was 70 and the “Plant response rating: Chickweed” value (chickweed; 31 g ai/ha) was 85. For the same molecule, the “Plant response rating: Chickweed” value (chickweed; 62 g ai/ha) was 100, the “Plant response rating: Chickweed” value (chickweed; 125 g ai/ha) was 100 and the “Plant response rating (0 to 100), Oat, Wild” value (oat, wild [3]; [5]) was 40. The “Plant response rating: Oat, Wild” value (oat, wild [3]; 62 g ai/ha) was 75, the “Plant response rating: Oat, Wild” value (oat, wild [3]; 125 g ai/ha) was 80 and the “Plant response rating: Speedwell” value (speedwell; 16 g ai/ha) was 75. The “Plant response rating: Speedwell” value (speedwell; 31 g ai/ha) was 85, the “Plant response rating: Speedwell” value (speedwell; 62 g ai/ha) was 90 and the “Plant response rating: Speedwell” value (speedwell; 125 g ai/ha) was 100. For the same molecule, the “Plant response rating (0 to 100), Lambsquarters” value (lambsquarters [4]; [5]) was 85, the “Plant response rating: Lambsquarters” value (lambsquarters [4]; 62 g ai/ha) was 95 and the “Plant response rating: Lambsquarters” value (lambsquarters [4]; 125 g ai/ha) was 100. For the same molecule, the “Plant response rating: Mustard, Wild” value (wild mustard; 16 g ai/ha) was 70, the “Plant response rating: Mustard, Wild” value (wild mustard; 31 g ai/ha) was 100 and the “Plant response rating: Mustard, Wild” value (wild mustard; 62 g ai/ha) was 100. The “Plant response rating: Mustard, Wild” value (wild mustard; 125 g ai/ha) was 100.
